Data taken from ChEMBL document CHEMBL1201862, “PubChem BioAssay data set” (2004).
Activity calls are given as the source filed them.

Key:
[1] = NIH-3T3 fibroblast cytotoxicity, dose response, cytotoxicity control, cell-based, fluorescence, Alamar Blue, secondary assay (AID 2327); assay type: functional;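 further: NIH-3T3 mouse fibroblasts cultured with fluconazole at 8 µg/mL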
[2] = target: T1, Serine/threonine-protein phosphatase (Candida dubliniensis (strain CD36 / CBS 7987 / NCPF 3949 / NRRLY-17841) (Yeast), UniProt B9W6M3); experiment: calcineurin pathway inhibitors in yeast reporter, dose response, S. cerevisiae, CDRE-lacZ, luminescence, secondary (AID 2388); assay type: functional, cell-based;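 further: yeast reporter cells carrying a calcineurin-responsive lacZ construct stimulated with calcium chloride; luminescent beta-galactosidase reporter signal in whole cells rather than isolated phosphatase activity; potency for inhibition where a drop in reporter signal means calcineurin blockade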
T1 sequence (B9W6M3 whole entry): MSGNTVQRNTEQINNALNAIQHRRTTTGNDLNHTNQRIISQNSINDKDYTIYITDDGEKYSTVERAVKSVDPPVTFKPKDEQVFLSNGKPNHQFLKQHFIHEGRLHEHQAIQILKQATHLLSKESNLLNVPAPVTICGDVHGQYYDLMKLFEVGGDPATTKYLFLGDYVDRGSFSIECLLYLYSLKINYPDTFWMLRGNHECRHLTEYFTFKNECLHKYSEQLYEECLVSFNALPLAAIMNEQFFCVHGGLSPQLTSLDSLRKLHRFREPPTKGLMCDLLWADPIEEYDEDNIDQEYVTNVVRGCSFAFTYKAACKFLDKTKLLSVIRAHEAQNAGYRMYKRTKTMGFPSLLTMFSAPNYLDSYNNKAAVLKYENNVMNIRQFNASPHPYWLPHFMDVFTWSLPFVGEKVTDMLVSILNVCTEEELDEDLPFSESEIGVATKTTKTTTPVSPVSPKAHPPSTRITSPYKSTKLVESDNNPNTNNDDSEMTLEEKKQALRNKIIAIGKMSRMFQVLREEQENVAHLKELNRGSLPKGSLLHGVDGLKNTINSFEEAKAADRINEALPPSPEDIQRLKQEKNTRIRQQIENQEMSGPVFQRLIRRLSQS

[3] = target: ATP-dependent molecular chaperone HSP82 (Candida albicans (strain WO-1) (Yeast), UniProt C4YTQ8); experiment: loss of DOC-induced GRE-beta-galactosidase reporter signal, dose response, Hsp90 inhibitor project, S. cerevisiae, luminescence (AID 2400); assay type: functional, cell-based;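 further: beta-galactosidase luminescence from glucocorticoid response element reporter as proxy for Hsp90 function; inhibitor potency where signal loss means Hsp90 inhibition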
[4] = C. albicans growth with fluconazole, confirmation, fluorescence, retest (AID 2467); assay type: functional, cell-based
[5] = target: Ras and Rab interactor 1/Tyrosine-protein kinase ABL1 (Homo sapiens, UniProt P00519+Q13671); assay type: functional;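 further: biochemical TR-FRET dose-response test measuring inhibition of binding between Rin1 and Abl proteins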
[6] = CRF-BP/CRF-R2 complex antagonists, dose response, cell-based, uHTS hits, 384-well (AID 651639); assay type: functional, Homo sapiens; conditions: read-out: IC50_Mean
[7] = target: T2, Corticotropin-releasing factor receptor 2/Corticotropin-releasing factor-binding protein (Homo sapiens, UniProt P24387+Q13324); experiment: activators of CRF receptor 2 with binding protein – uHTS hits, confirmation (AID 602473); assay type: functional; conditions: read-out: EC50_Mean
T2 sequence (Q13324 whole entry): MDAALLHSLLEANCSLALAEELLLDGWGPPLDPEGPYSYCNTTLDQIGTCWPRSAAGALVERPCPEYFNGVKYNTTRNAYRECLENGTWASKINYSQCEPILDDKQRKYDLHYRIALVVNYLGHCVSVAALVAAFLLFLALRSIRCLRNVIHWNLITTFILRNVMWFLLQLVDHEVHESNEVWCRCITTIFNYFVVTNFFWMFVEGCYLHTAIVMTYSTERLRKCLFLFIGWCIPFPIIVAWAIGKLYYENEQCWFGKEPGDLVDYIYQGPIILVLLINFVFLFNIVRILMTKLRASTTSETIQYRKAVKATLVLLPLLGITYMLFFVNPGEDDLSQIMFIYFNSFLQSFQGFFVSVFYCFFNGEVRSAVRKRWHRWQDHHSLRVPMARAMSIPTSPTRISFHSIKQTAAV
T2 sequence (P24387 whole entry): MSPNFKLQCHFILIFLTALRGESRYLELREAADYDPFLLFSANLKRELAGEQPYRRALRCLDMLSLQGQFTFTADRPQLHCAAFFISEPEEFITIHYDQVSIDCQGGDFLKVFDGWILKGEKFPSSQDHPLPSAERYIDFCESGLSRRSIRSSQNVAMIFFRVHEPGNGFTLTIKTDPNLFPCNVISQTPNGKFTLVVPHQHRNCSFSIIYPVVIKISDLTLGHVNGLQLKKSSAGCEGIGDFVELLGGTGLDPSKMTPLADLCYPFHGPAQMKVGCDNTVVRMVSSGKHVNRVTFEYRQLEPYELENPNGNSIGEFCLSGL

[8] = target: T2, Corticotropin-releasing factor receptor 2/Corticotropin-releasing factor-binding protein; experiment: Dose Response confirmation of uHTS hits for small molecule antagonists of the CRF-binding protein and CRF-R2 receptor complex.; assay type: functional; conditions: read-out: IC50_Mean
[9] = HEK293T cytotoxicity, dose response, cytotoxicity control for miR-122 modulator project, cell-based, inhibitor set, cherry-pick, set 2 (AID 720697); assay type: functional
cells = assay type: functional
[10] = target: T3, Low molecular weight phosphotyrosine protein phosphatase (Homo sapiens, UniProt P24666); assay type: functional; conditions: read-out: IC50_Mean
T3 sequence (P24666 whole entry): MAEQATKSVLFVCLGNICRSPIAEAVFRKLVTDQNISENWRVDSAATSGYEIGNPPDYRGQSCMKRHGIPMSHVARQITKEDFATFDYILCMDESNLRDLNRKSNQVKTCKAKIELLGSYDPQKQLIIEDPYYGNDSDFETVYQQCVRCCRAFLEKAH

[11] = target: T3, Low molecular weight phosphotyrosine protein phosphatase; assay type: functional; conditions: read-out: IC50_Mean; remark: listed apart in the source
[12] = A549 cell cytotoxicity, dose response, cytotoxicity control, plate reader, cherry-pick, antagonist series (AID 743412); assay type: functional, cell-based
[13] = MC4R antagonists, dose response, counter-screen for LGR2 antagonist project, cell-based, plate reader, cherry pick (AID 743444); assay type: functional;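 further: transfected HEK 293 cells stimulated with alpha-MSH peptide; potency of inhibitors of the alpha-MSH evoked signal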
[14] = LGR2 antagonists, dose response, cell-based, HEK293, CRE-luciferase reporter, cherry pick, set 2 (AID 743343); assay type: functional;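 further: transfected cells were stimulated with diluted bursicon conditioned medium after compound addition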
[15] = HepG2 cell cytotoxicity, dose response, cytotoxicity control, plate reader, cherry-pick, antagonist series (AID 743416); assay type: functional, cell-based
[16] = target: T4, Rac GTPase-activating protein 1 (Homo sapiens, UniProt Q9H0H5); experiment: MgcRacGAP GTPase-activating activity inhibitors, confirmation, biochemical, ADP Hunter fluorescence, primary and confirmatory (AID 624330); assay type: functional
T4 sequence (Q9H0H5 whole entry): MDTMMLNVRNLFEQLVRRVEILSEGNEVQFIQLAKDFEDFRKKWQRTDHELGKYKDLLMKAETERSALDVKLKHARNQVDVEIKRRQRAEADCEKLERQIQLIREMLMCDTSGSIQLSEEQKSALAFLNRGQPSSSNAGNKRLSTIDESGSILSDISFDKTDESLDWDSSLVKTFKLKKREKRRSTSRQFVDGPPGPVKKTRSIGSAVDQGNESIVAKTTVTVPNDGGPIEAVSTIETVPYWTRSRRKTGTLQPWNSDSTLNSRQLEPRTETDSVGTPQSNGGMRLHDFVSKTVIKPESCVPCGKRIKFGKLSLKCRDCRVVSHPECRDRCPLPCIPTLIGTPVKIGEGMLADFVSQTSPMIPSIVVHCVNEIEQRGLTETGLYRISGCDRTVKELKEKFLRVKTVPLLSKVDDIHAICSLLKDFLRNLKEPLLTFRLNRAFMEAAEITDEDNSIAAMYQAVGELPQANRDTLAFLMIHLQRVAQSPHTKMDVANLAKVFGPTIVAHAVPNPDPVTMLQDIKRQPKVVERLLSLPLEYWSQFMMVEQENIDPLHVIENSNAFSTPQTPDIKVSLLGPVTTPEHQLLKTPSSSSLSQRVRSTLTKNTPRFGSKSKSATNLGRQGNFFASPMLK

Troponin, cardiac muscle = Troponin, cardiac muscle (Homo sapiens, UniProt P19429+P45379+P63316); experiment: inhibitors of cardiac thin filament calcium sensitivity, dose response, biochemical, fluorescence, cardiac regulated thin filaments, triplicate IC50 (AID 504742); assay type: protein-complex assay
[17] = target: T5, Small ubiquitin-related modifier 1 (Homo sapiens, UniProt P63165); experiment: inhibitors of SUMO1 peptide binding, dose response, biochemical, fluorescence polarization, uHTS hits (AID 624382); assay type: functional; conditions: read-out: IC50_Mean
[18] = target: T5, Small ubiquitin-related modifier 1; experiment: inhibitors of SUMO1 partner interactions, dose response, biochemical, FRET (AID 624383); assay type: functional; conditions: read-out: IC50_Mean
[19] = target: T6, Long-chain-fatty-acid--AMP ligase FadD28 (Mycobacterium tuberculosis, UniProt P9WQ59); experiment: Fluorescence polarization aasay to screen for inhibitors that compete for the binding of FadD28 to a bisubstrate Measured in Biochemical System Using Plate Reader - 2147-01_Inhibitor_Dose_CherryPick_Activity.; assay type: functional, Mycobacterium tuberculosis H37Rv
T6 sequence (P9WQ59 whole entry): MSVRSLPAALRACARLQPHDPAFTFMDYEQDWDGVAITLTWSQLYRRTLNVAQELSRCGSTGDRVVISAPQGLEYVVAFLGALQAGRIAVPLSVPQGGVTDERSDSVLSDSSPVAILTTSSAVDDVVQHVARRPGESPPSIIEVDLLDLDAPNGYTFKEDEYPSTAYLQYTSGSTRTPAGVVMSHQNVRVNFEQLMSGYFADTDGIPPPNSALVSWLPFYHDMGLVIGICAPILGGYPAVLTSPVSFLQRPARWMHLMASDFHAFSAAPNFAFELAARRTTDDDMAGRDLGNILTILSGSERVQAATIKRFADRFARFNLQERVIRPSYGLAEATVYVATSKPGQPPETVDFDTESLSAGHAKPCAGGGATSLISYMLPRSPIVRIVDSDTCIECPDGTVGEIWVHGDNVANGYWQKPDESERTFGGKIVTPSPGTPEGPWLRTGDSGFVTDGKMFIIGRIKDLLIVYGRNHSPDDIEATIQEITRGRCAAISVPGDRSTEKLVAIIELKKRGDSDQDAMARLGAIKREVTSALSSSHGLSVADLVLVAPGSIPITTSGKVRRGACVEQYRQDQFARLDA

[20] = inhibitors of PGC1a acetylation in cells, dose response, cell-based, cherry-picked samples (AID 720514); assay type: functional;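 further: potency may reflect raised or lowered acetylation signal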

Sequence of Ras and Rab interactor 1/Tyrosine-protein kinase ABL1 (P00519 whole entry): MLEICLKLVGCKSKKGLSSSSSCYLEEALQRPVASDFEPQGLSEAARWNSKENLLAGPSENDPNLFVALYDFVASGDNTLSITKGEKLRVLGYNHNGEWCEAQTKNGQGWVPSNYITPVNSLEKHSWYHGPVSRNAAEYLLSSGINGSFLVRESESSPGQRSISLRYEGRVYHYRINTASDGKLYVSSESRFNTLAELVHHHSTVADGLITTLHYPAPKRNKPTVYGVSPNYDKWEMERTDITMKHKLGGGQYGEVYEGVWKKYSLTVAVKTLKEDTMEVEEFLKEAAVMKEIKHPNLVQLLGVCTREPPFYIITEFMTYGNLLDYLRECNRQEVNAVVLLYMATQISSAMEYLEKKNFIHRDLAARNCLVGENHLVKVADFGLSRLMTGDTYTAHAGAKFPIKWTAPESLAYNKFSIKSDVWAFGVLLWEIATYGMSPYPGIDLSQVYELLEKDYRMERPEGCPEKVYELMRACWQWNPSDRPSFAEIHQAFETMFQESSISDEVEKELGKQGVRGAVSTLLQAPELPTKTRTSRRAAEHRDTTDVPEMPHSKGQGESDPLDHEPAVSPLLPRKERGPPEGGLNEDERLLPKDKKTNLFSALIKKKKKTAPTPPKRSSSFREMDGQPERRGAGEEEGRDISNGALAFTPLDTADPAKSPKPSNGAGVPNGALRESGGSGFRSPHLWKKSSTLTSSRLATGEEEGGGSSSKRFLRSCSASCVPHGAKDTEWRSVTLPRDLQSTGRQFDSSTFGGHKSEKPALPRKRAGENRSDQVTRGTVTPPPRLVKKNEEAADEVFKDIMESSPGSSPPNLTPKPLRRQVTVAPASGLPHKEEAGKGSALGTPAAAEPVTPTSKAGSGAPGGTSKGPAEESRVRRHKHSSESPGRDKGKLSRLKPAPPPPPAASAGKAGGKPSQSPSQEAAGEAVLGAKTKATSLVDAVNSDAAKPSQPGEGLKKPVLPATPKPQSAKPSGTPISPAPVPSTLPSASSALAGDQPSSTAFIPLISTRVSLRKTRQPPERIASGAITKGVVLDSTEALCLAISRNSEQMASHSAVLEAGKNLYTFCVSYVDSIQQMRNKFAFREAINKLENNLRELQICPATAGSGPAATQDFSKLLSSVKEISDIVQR
Sequence of Ras and Rab interactor 1/Tyrosine-protein kinase ABL1 (Q13671 whole entry): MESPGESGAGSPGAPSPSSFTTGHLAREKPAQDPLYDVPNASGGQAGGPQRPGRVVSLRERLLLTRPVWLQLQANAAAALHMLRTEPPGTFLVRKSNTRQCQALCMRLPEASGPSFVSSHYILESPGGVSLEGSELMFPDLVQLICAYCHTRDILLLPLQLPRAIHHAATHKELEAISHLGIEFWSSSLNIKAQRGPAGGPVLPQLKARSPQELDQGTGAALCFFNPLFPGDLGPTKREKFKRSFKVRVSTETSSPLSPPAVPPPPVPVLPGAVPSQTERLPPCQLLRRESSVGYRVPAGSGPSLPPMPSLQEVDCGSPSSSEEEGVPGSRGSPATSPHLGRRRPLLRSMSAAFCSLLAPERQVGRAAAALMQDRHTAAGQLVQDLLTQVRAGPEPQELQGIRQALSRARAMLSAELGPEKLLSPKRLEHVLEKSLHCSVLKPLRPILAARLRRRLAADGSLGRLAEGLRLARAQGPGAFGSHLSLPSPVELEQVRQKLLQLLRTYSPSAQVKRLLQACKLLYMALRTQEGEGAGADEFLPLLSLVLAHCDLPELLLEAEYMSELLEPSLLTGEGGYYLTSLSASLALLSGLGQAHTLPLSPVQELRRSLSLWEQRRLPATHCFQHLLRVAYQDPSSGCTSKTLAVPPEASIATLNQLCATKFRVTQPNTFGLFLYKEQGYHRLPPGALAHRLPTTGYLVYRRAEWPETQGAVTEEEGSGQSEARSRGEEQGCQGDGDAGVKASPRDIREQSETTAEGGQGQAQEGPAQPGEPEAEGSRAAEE
T5 sequence (P63165 whole entry): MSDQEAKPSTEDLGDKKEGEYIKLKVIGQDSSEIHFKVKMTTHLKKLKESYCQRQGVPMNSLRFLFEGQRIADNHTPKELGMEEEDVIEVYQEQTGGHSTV
Sequence of ATP-dependent molecular chaperone HSP82 (C4YTQ8 whole entry): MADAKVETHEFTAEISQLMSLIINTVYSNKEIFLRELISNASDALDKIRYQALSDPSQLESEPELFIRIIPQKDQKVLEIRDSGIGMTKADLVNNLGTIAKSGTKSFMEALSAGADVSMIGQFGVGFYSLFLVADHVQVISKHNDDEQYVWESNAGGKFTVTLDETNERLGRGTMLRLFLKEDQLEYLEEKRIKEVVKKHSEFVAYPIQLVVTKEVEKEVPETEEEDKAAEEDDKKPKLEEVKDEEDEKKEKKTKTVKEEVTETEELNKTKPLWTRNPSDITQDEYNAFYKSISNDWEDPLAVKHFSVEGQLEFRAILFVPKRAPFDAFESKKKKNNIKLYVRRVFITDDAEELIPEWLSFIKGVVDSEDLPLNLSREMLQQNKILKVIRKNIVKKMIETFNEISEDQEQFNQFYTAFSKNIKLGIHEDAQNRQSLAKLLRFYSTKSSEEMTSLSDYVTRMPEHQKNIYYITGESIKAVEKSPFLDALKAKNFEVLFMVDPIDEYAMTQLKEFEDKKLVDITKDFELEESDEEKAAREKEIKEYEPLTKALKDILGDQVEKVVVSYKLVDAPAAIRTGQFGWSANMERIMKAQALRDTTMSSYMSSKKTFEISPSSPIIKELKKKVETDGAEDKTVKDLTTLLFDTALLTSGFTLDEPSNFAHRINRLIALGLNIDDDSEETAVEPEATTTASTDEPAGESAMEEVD

Q: With `Nc1nc(=O)[nH]cc1F` [FLUCYTOSINE] as the compound, how does the EC50 [1] read?
A: The EC50 was > 160 µM (inactive).

Q: And the EC50 [2]?
A: The EC50 was > 180 µM (inactive).

Q: What about the EC50 [3] of the same compound?
A: The EC50 was > 160 µM (inactive).

Q: What about the EC50 [4] of the same compound?
A: Its EC50 is 0.252 µM (active).

Q: With `Cc1c(C(=O)NCCN2CCOCC2)oc2ccc(Br)cc12` as the compound, how does the IC50 [5] read?
A: Its IC50 is 1.02 µM (active).

Q: With `CCCn1nc(C(=O)N(C)CC(=O)Nc2ccc(OCC)c(OCC)c2)c2ccccc2c1=O` as the compound, how does the IC50 [5] read?
A: Its IC50 is 10.5 µM (inactive).

Q: For `Oc1nc2ccccc2n1C1CCN(C(c2ccnc3ccccc23)c2nnnn2-c2ccc3c(c2)OCCO3)CC1` (stereo not drawn), which IC50 [5] is on record?
A: The IC50 was 15.3 µM (inactive).

Q: Which IC50 [6] does the source give for `CSc1c(C#N)sc(=S)n1-c1ccc(C)cc1` here?
A: The IC50 was > 20 µM (inactive).

Q: What about the EC50 [7] of the same compound?
A: The EC50 was > 53 µM (inactive).

Q: And the IC50 [8]?
A: The IC50 was 11.9 µM (active).

Q: Which results are given for `COCCn1c(=O)[nH]c(=O)c2cc(C(=O)c3cc(Cl)ccc3O)cnc21`?
A: EC50 [1]: > 160 µM (inactive); EC50 [2]: > 180 µM (inactive); EC50 [3]: > 160 µM (inactive); EC50 [4]: 1.12 µM (active)

Q: With `O=C(COc1cccc2ccccc12)Nc1nc2ccccc2[nH]1` as the compound, how does the AC50 [9] read?
A: Its AC50 is 8.06 µM (active).

Q: What about the IC50 (cells) of the same compound?
A: Its IC50 is 6.2 µM (active).

Q: Which results are given for `O=c1cc(-c2cc3ccccc3o2)c2cc(O)ccc2o1`?
A: IC50 [10]: 24.1 µM (inactive); IC50 [11]: 19.7 µM (active)

Q: With `COc1ccc(C(=O)Nc2ccc3ncccc3c2)cc1` as the compound, how does the AC50 [12] read?
A: Its AC50 is 37.8 µM (active).

Q: And the AC50 [13]?
A: The AC50 was 7.29 µM (active).

Q: And the AC50 [14]?
A: Its AC50 is 5.45 µM (active).

Q: What about the AC50 [15] of the same compound?
A: The AC50 was 47 µM (active).

Q: Which results are given for `O=C(O)c1cc(O)c2c(c1)[C@@H]([C@H]1c3cc(C(=O)O)cc(O)c3C(=O)c3c(O[C@@H]4O[C@H](CO)[C@@H](O)[C@H](O)[C@H]4O)cccc31)c1cccc(OC3O[C@H](CO)[C@@H](O)[C@H](O)[C@H]3O)c1C2=O` (stereo partly drawn)?
A: IC50 [16]: 12 µM (active); IC50 (Troponin, cardiac muscle): 1.82 µM (active); IC50 [17]: 30.6 µM (inactive); IC50 [18]: 1.06 µM (active); AC50 [19]: > 100 µM (inactive)

Q: Which results are given for `COc1ccc(Nc2ccnc3ccccc23)cc1`?
A: IC50 [10]: 30.1 µM (inactive); IC50 [11]: 23.4 µM (inactive); AC50 [20]: 28.3 µM (active)

Q: Which IC50 [6] does the source give for `N#CN=C(Nc1cccc(F)c1)SCc1ccccc1F` here?
A: Its IC50 is 1.67 µM (active).

Q: And the EC50 [7]?
A: Its EC50 is > 53 µM (inactive).

Q: And the IC50 [8]?
A: The IC50 was 6.82 µM (active).
